Laboratory results: patent US6797728B2, “Use of intracellular calcium chelators to increase surfactant secretion in the lungs” (Thomas Jefferson University, priority 2000, dated 2004)
pKd: −log10 of the molar value. Like-named read-outs stand apart in the source and are kept apart here.

Assays:
[1] = tested on: [Ca^2+]l in type II cells; assay: ER (lumenal) calcium concentration, fura2ff fluorescence with Mn2+ quench; assay type: cell-based, rat; conditions: fura2ff 340/380 nm ratio, Mn2+ added, FIG. 7
Procedure: Type II cells were prepared as described and plated on glass coverslips that had been pretreated with poly-L-lysine (Sigma, 0.01%, 20° C., 15 mins). After incubation overnight at 37° C. in MEM-10% FCS, the cells were washed three times with serum-free MEM and once with loading buffer (121 mM NaCl, 4.7 mM KCl, 1.2 mM KH2P04, 1.2 mM MgSO4, 2% BSA, 10 mM glucose, 20 mM HEPES, 2 mM CaCl2). The cells were loaded in loading buffer containing 10 μM Fura-2FF(AM) (Teflabs, Austin, Tex.) and 0.06% Pluronic Acid (Molecular Probes, Inc.) for two hours with shaking at 37° C. The coverslip was washed in calcium-free imaging buffer (121 mM NaCl, 4.7 mM KCl, 1.2 mM KH2PO4, 1.2 mM MgSO4, 10 mM glucose, 20 mM HEPES), inserted into a thermostatically regulated chamber (37° C.), and mounted on an inverted fluorescence microscope in 1 ml of imaging buffer. Fluorescence imaging following excitation at 340 nm and 380 nm was performed (supra).
During imaging MnCl2 was added at time=0 to a final concentration of 500 μM followed by either SP-A, ionomycin, or TG (final concentrations 100 ng/ml, 1 μM and 4 μM respectively).
Decreases in [Ca^2+]l, rather than increases in [Ca^2+]i, were hypothesized to be the critical regulator of surfactant secretion by all secretagogues, with the exception of PMA. This theory predicts that BAPTA-AM, and other calcium-dependent secretagogues, would decrease [Ca^2+]l, but that PMA would not. Thus, type II cells were loaded with fura2ff. This fluorophore has a much lower affinity for calcium in the μM range than fura2 does, and is therefore used to assess changes in [Ca^2+]l. Type II cells were also treated with Mn^2+, which binds cytoplasmic fura2ff and prevents its binding to Ca^2+. (Dorn, et al, Br. J. Pharmacol. 97: 163-170, 1989; Kuroki, et al, Biochem. J. 115: 115-119, 1991; Miyata, et al, Am. J. Physiol. 261: H1123-H1134, 1991). Any changes in the lumenal free calcium concentration were measured as changes in the ratio of fura2ff excitation at 340 nm to that at 380 nm. […] PMA had no effect.

alveolar type II cells [2] = assay: Surfactant secretion assay (secretion of 3H-labeled phospholipid by type II cells); assay type: cell-based, rat; conditions: for effect of re-adding calcium after overnight depletion on secretagogue-induced PL secretion: Ca2+ added back to 1.64 mM at start of the 2 hr secretion assay; for effect of calcium depletion on secretagogue-stimulated PL secretion: cells in Ca2+-free medium overnight and during the 2 h assay, ATP 500 μM, TG 10 μM, Io 1 μM, PMA 50 ng/ml, BAPTA-AM 25 μM; for effect of removing extracellular Ca2+ during the assay on secretagogue-elicited surfactant secretion: normal medium overnight, Ca2+-free medium for the 2 h assay, FIG. 4; for % PL secreted: BAPTA 25 μM, SP-A 100 ng/ml, alone or together, percentage of 3H-labeled phospholipid secreted, no additions 8.33
Procedure: Freshly isolated type II cells were prepared according to standard techniques, originally described by Dobbs (Dobbs, et al, AM. Rev. Respir. Dis. 134, 141-145, 1986), and later modified by Sen and Chander (Sen and Chander, Biochem. J. 298: 681-687, 1994). The use of these techniques has been previously reported. (Strayer, et al, Ex. Cell Res. 226: 90-97, 1996; Strayer, et al, Rec. Signal Transd. 7: 111-120, 1997). Briefly, lungs of anesthetized rats were cleared of blood and treated with elastase endotracheally (Worthington Biochemical, Freehold, N.J.) to obtain free cells. The cells were separated from lung debris and plated on bacteriological plates coated with normal rat IgG (Sigma Chemical Co., St. Louis, Mo.). After 1 hr, free cells were collected by panning, pelleted, and resuspended (0.8×10^6 cells/ml) in minimum essential medium (MEM)+10% fetal bovine serum (FCS, Life Technologies, Gaithersburg, Md.).
Secretion studies were performed as described by Sen and Chander. (Sen and Chander, Biochem. J. 298: 681-687, 1994). Briefly, 0.8×10^6 alveolar type II cells were cultured for 18 h in MEM with 10% FBS+0.5 μCi of [methyl-^3H]-choline (Amersham, Arlington Heights, Ill.) to label cellular phospholipids (PL) metabolically. Cells were washed to remove non-adherent cells and unincorporated radioactivity. After replacing this medium with fresh MEM, plates were incubated for 15 min. SP-A (100 ng/ml) was added to selected plates, followed by incubation for an additional 15 min.; secretagogues were then added at the appropriate concentrations [control (no addition), ATP (500 μM), TG (10 μM), ionomycin (1 μM), PMA (50 ng/ml)]. At this point (t=0) in each experiment, some samples were removed for analysis of secreted labeled lipids to establish a baseline. Incubation proceeded for an additional 2 h for all other plates. Following this incubation, media were removed and centrifuged (15 min., 300×g) to pellet cells that detached during incubation. These cells were later pooled with those recovered from the plates. Lipids from both media and plates were extracted (Sen and Chander, Biochem. J. 298: 681-687, 1994) after adding [methyl-^14C]-DPPC (Amersham, Arlington Heights, Ill.) as a recovery standard, and egg phosphatidylcholine (Sigma Chemical Co., St. Louis, Mo.) as a carrier lipid. Recovered lipids were dissolved in Scintiverse II fluid (Fisher Scientific, Pittsburgh, Pa.) and the radioactivity of these lipid extracts measured with a scintillation counter (Beckman Instruments, Fullerton, Calif.). ^3H-labeled phospholipid recovery was normalized to recovery of [methyl-^14C]-DPPC. Phospholipid secretion was determined as percent secretion=(cpm in lipids recovered from media×100)/(cpm in lipids recovered from media and plates).

[3] = tested on: [Ca^2+]i in type II cells; assay: Cytosol free calcium concentration, fura2 digital imaging fluorescence microscopy; assay type: cell-based, rat; conditions: fura2 340/380 nm ratio, compared to mock-treated cells
Procedure: 10^6 freshly isolated type II cells were added to 35 mm tissue culture plates, each containing a polylysine (Sigma Chemical Co.) coated 25 mm diameter coverslip and incubated (37° C., 5% CO2) for at least 2 hr. Twenty min before use, Fura2/AM (Molecular Probes) was added (final concentration, 3 μM) to each coverslip. After Fura2 loading, the coverslips were washed with cell incubation buffer (121 mM NaCl, 4.7 mM KCl, 1.2 mM KH2PO4, 1.2 mM MgSO4, 2 mM CaCl2, 10 mM glucose, 5 mM NaHCO3, 0.2% BSA, and 10 mM HEPES/NaOH, pH 7.4) and inserted into a thermostatically regulated chamber (37° C.). Cell incubation buffer was added and the whole assembly placed on the stage of a Nikon Diaphot inverted microscope. At appropriate times (see infra), secretagogues in the appropriate concentration (see supra) were added. Fluorescence images of the cells were collected by exciting the cells alternately at 340 and 380 nm and measuring emission at 500 nm using a charge-coupled device camera (Photometrics, Inc.) as described previously. (Rooney, et al, Biol. Chem 264: 17131-17141, 1989). Image acquisition and analysis were done with Macintosh computers running customized image-processing software. The ratio (340/380) of Fura2 excitation was calibrated to [Ca^2+]i as described. (Rooney, et al, Biol. Chem 264: 17131-17141, 1989; Grynkiewicz, et al, J. Biol. Chem. 260: 3440-3450, 1985).

alveolar type II cells [4] = assay: Surfactant secretion assay (secretion of 3H-labeled phospholipid by type II cells); assay type: cell-based, rat; conditions: within 4 hours of treatment; control cells release about 7%
type II cells [5] = tested on: type II cells
Procedure: (§1) Viability of type II cells was tested both by trypan blue exclusion, and by tetrazolium/formazan assay (Promega Corp., Madison, Wis.), which measures mitochondrial dehydrogenases. These enzymes are only present in active form in living cells and are absent in nonviable cells. […] For such studies, an assay solution containing the tetrazolium compound (3-(4,5-dimethylthiazol-2-yl)-5-(3-carboxymethoxyphenyl)-2-(4-sulfonyl)-2H-tetrazolium, inner salt; MTS) and an electron-coupling reagent (phenazine methosulfate; PMS) in MEM is added to the cells. […] Correction was made for the small effect of BAPTA itself on this reaction by running a parallel assay on plates with no cells.
(§2) In these studies, cellular viability was determined in two ways. Viable cells enumerated by counting trypan blue-excluding cells. […] In addition, cellular viability in BAPTA-AM-treated cultures was measured using the tetrazolium/formazan assay for mitochondrial dehydrogenase.

type II cells [6] = tested on: type II cells; remark: listed apart in the source
Procedure: as §1, §2

type II cells [7] = assay: Type II cell viability by trypan blue exclusion; conditions: at the concentrations of FIG. 2; compared to each other and to untreated type II cells
Procedure: as §1, §2

[8] = read-out: affinity of BAPTA for calcium; cited from earlier work

For `C[C@H](CCC(=O)O)C[C@H](C)C[C@H](C)C(=O)/C=C(\O)[C@H](C)C[C@H](C)C/C=C/[C@@H](C)[C@@H](O)[C@@H](C)[C@@H](O)C[C@@H]1CC[C@@](C)([C@H]2CC[C@@](C)([C@@H](C)O)O2)O1` [Io, ionomycin], which “effect on lumenal free calcium concentration [Ca^2+]l” value [1] is on record?
Its value is “decreased [Ca^2+]l”.

And the “effect of re-adding calcium after overnight depletion on secretagogue-induced PL secretion” value (“effect of re-adding calcium” below) (alveolar type II cells [2])?
The value was “restored”.

What about the “effect of calcium depletion on secretagogue-stimulated PL secretion” value (“effect of calcium depletion” for short) (alveolar type II cells [2]) of the same compound?
The value was “prevented”.

And the “effect of removing extracellular Ca2+ during the assay on secretagogue-elicited surfactant secretion” value (alveolar type II cells [2])?
Its value is “not significantly altered”.

What does the source list for `C/C=C(/C)C(=O)O[C@H]1C(C)=C2[C@H]([C@@H]1OC(=O)CCCCCCC)[C@@](C)(OC(C)=O)C[C@H](OC(=O)CCC)[C@@]1(O)[C@H]2OC(=O)[C@@]1(C)O` [TG, thapsigargin]?
effect of re-adding calcium after overnight depletion on secretagogue-induced PL secretion (alveolar type II cells [2]): restored; effect of calcium depletion on secretagogue-stimulated PL secretion (alveolar type II cells [2]): partially inhibited; effect of removing extracellular Ca2+ during the assay on secretagogue-elicited surfactant secretion (alveolar type II cells [2]): Statistically significant but small decreases

For `Nc1ncnc2c1ncn2[C@@H]1O[C@H](COP(=O)(O)OP(=O)(O)OP(=O)(O)O)[C@@H](O)[C@H]1O` [ATP], which “effect of calcium depletion” value (alveolar type II cells [2]) is on record?
The value was “prevented”.

With surfactant-associated protein-A [SP-A] as the compound, how does the “effect on lumenal free calcium concentration [Ca^2+]l” value [1] read?
The value was “increased [Ca^2+]l”.

And the “% PL secreted” value (alveolar type II cells [2])?
The value was 4.98%.

And the “BAPTA-induced surfactant secretion after SP-A pretreatment” value (alveolar type II cells [2]; SP-A pretreatment, then BAPTA-AM loading concentration 25 μM, versus cells not exposed to SP-A)?
Its value is “significantly less surfactant secretion”.

Which “effect on cytosol free calcium concentration [Ca^2+]i” value [3] does the source give for `CC(=O)OCOC(=O)CN(CC(=O)OCOC(C)=O)c1ccccc1OCCOc1ccccc1N(CC(=O)OCOC(C)=O)CC(=O)OCOC(C)=O` [BAPTA-AM, 1,2-bis(2-aminophenoxy)ethane-N,N,N, N-tetraacetic acid acetoxymethyl ester] here?
The value was “caused [Ca^2+]i to decrease somewhat”.

What about the stored surfactant released (alveolar type II cells [4]) of the same compound?
The stored surfactant released was “about ⅔”.

And the “effect on cell viability (trypan blue-excluding cells)” value (type II cells [5])?
The value was “Neither BAPTA-AM nor TPEN at these concentrations had any effect on cell viability”.

And the “% PL secreted” value (alveolar type II cells [2])?
The value was 15.47%.

What about the “viability of treated type II cells (tetrazolium/formazan)” value (type II cells [6]) of the same compound?
Its value is “does not differ from that of control cells”.

With `c1ccc(CN(CCN(Cc2ccccn2)Cc2ccccn2)Cc2ccccn2)nc1` [TPEN, N,N,N′,N′-tetrakis-(2-pyridylmethyl) ethylenediamine] as the compound, how does the “effect on cell viability (trypan blue-excluding cells)” value (type II cells [7]) read?
Its value is “Neither BAPTA-AM nor TPEN at these concentrations had any effect on cell viability”.

And the secretagogue activity (alveolar type II cells [2]; TPEN up to 150 μM, FIG. 2)?
The secretagogue activity was “no secretagogue activity”.

Which “effect on lumenal free calcium concentration [Ca^2+]l” value [1] does the source give for `O=C(O)CN(CC(=O)O)c1ccccc1OCCOc1ccccc1N(CC(=O)O)CC(=O)O` [BAPTA, 1,2-bis(2-aminophenoxy)ethane-N,N,N, N-tetraacetic acid] here?
Its value is “decreased [Ca^2+]l”.

What about the pKd [8] of the same compound?
Its pKd is 6.80.

And the “effect of re-adding calcium” value (alveolar type II cells [2])?
The value was “restored”.

And the “effect of calcium depletion” value (alveolar type II cells [2])?
The value was “prevented BAPTA secretagogue activity”.

And the “surfactant secretion at 5 μM BAPTA” value (alveolar type II cells [2]; dose-response studies, concentration range of 5 μM)?
Its value is “below the threshold”.

And the “concentrations at which BAPTA stimulates surfactant secretion (powerful secretagogue)” value (alveolar type II cells [2]; dose-response, FIG. 2)?
Its value is 25 to 100 µM.

What about the “effect of removing extracellular Ca2+ during the assay on secretagogue-elicited surfactant secretion” value (alveolar type II cells [2]) of the same compound?
Its value is “not significantly altered”.

Which “effect on lumenal free calcium concentration [Ca^2+]l” value [1] does the source give for `CCCCCCCCCCCCCC(=O)O[C@@H]1[C@@H](C)[C@@]2(O)[C@@H](C=C(CO)C[C@]3(O)C(=O)C(C)=C[C@@H]23)[C@@H]2C(C)(C)[C@]12OC(C)=O` [PMA, phorbol 12-myristate 13-acetate] here?
Its value is “no effect”.

What about the “effect on cytosol free calcium concentration [Ca^2+]i” value [3] of the same compound?
Its value is “did not alter [Ca^2+]i”.

What about the “effect of re-adding calcium” value (alveolar type II cells [2]) of the same compound?
Its value is “increased PMA-induced secretion, but this effect was not statistically significant”.

And the “effect of calcium depletion” value (alveolar type II cells [2])?
The value was “did not alter”.

And the “effect of removing extracellular Ca2+ during the assay on secretagogue-elicited surfactant secretion” value (alveolar type II cells [2])?
Its value is “Statistically significant but small decreases”.
